# Data as given in patent US20250049928A1, “ANESTHETIC PRODRUGS AND DERIVATIVES THEREOF FOR PROLONGED SENSORY SELECTIVE NERVE BLOCKAGE” (The Board of Trustees of The University of Alabama, priority 2023, published 2025).
# Several values for one entry are separate records, joined by “and”; a condition that tells them apart may be missing. Equal values may be shown once. Entries after “also recorded” stand apart in the source; their conditions may differ. Read-outs that look alike come from different tables or passages of the source.
# Assays:
# GLUT1 = GLUT1 (Homo sapiens, UniProt P11166); details: cited from earlier work
# GLUT1, sequence (P11166 whole entry, species assumed): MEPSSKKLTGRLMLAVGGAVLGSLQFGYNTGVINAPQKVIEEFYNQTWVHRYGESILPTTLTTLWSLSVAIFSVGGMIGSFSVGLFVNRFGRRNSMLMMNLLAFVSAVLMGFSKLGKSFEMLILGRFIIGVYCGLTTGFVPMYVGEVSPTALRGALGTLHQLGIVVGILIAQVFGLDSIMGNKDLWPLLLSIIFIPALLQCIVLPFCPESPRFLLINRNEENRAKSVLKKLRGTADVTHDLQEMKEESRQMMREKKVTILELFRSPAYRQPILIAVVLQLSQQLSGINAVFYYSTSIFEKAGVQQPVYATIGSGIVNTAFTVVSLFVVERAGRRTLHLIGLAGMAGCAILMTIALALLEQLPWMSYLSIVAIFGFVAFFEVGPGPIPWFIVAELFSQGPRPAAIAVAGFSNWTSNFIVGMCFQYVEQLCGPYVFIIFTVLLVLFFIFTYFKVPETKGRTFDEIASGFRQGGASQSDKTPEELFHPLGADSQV
# rats [1] = details: rat, in vivo
# sciatic nerve [2] = assay: Rat sciatic nerve block: nociceptive axon blockade (hotplate thermal latency); type: in vivo, Sprague-Dawley rats
# sciatic nerve [3] = assay: Rat sciatic nerve block: motor axon blockade (weight-bearing test); type: in vivo, Sprague-Dawley rats
# rats [4] = details: rat, in vivo; remark: listed apart in the source
# Log P = details: octanol/water
# GLUT3 = GLUT3 (Homo sapiens, UniProt P11169); details: read-out: Km for GLUT3; cited from earlier work
# GLUT3, sequence (P11169 whole entry, species assumed): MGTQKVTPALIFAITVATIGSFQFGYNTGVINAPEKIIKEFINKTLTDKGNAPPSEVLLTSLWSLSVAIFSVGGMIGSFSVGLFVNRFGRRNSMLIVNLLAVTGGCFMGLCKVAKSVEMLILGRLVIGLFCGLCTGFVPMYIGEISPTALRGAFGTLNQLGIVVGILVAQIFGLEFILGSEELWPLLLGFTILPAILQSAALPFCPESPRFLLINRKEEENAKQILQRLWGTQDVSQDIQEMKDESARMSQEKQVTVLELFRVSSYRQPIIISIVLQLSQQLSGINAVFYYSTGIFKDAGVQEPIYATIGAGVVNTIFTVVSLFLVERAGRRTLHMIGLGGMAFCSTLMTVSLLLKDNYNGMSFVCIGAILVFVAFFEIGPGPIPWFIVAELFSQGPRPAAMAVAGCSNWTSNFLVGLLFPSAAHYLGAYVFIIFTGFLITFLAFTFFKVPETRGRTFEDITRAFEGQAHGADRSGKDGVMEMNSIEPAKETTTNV
# sciatic nerve [5] = details: rat, in vivo
# [6] = tested on: sciatic nerves and surrounding tissues; details: rat, in vivo
# [7] = tested on: Esterase (from porcine liver); details: pig
# [8] = read-out: Km (transporter protein affinity for sugar molecules)
molecule,measurement,setting,value
"O=C1O[C@H]([C@@H](O)CO)C(=O)C1=O [DHA, dehydroascorbic acid]",Km,GLUT1; [8],1.1 mM
"COc1cc(CNC(=O)CCCC/C=C/C(C)C)ccc1OC[C@H]1OC(O)[C@H](O)[C@@H](O)[C@H]1O (stereo partly shown) [Gal-CAP prodrug, galactose-capsaicin prodrug]",frequency of licking within 5 minutes after injection,rats [1],1±1.41 times
same,total duration of licking behavior,rats [1],4.55 ± 5.77 s
"CCCCN1CCCCC1C(=O)Nc1c(C)cccc1C (stereo not shown) [bupivacaine, reference compound]",successful sensory blockade,sciatic nerve [2]; 8.65 mM in 0.3 mL PBS,failed to achieve a successful block
same,mean duration of sensory block,sciatic nerve [2]; 17.3 mM in 0.3 mL PBS,1.75 ± 0.29 h
same,sensory block success,sciatic nerve [2]; 17.3 mM in 0.3 mL PBS,100%
same,duration of motor deficits / motor involvement,sciatic nerve [3]; 17.3 mM in 0.3 mL PBS,1.375 ± 0.48 h
COc1cc(CNC(=O)CCCC/C=C/C(C)C)ccc1O [capsaicin],successful analgesic block (thermal paw withdrawal latencies >7 seconds),sciatic nerve [2]; injection doses above 3.28 μmol,100%
same,successful analgesic block (thermal paw withdrawal latencies >7 seconds),"sciatic nerve [2]; injection doses above 1 mg, 0.3 mL at left sciatic nerve",100%
same,duration of nociceptive axon block,sciatic nerve [2]; injection of 6.56 μmol,4.0 ± 2.0 h
same,duration of nociceptive axon blockade,sciatic nerve [2]; single injection of 2 mg in 0.3 mL at sciatic nerve,4 ± 2 h
same,duration of nociceptive axon blockade,sciatic nerve [2]; single injection of 3 mg in 0.3 mL at sciatic nerve,30 ± 12 h
same,rats that developed acute respiratory distress,"rats [4]; male, Sprague-Dawley",75%
same,rats that developed contralateral nociceptive axon block,"rats [4]; male, Sprague-Dawley",50%
same,rats that experienced a seizure,"rats [4]; male, Sprague-Dawley",25%
same,rats with irreversible nociceptive axon blockade in the injected hind limb,"rats [4]; male, Sprague-Dawley",25%
same,rats exhibiting at least one systemic adverse effect,rats [4],all rats
same,logP,Log P,3.66
same,motor deficits in the injected hind limb,sciatic nerve [3]; 0.5-3 mg in 0.3 mL at sciatic nerve,did not produce any motor deficits
same,motor deficits in the injected hind limb,"sciatic nerve [3]; Example 4, doses in μmol, 0.3 mL PBS",did not produce any motor deficits
O=C[C@H](O)[C@@H](O)[C@@H](O)[C@H](O)CO [galactose],Km,GLUT1; [8],15 mM
same,Km,GLUT1; read-out: Km for GLUT1,17 mM
same,Km,GLUT3,8.5 mM
N[C@H]1C(O)O[C@H](CO)[C@@H](O)[C@@H]1O (stereo partly shown) [glucosamine],Km,GLUT1; [8],2.5 mM
galactosamine-fluorescein [Gal-FL],mean fluorescent intensity in epineurium/perineurium and inside the nerve,sciatic nerve [5],significantly higher
galactose-capsaicin prodrug,change of nociceptive axon block duration with increasing glucose dose,"sciatic nerve [2]; rat, in vivo",decrease in nociceptive axon block duration; also recorded: significant decrease
same,duration of nociceptive axon blockade,"sciatic nerve [2]; rat, in vivo",150.0 ± 76.8 h and 234 ± 36 h
same,successful analgesic block (thermal paw withdrawal latencies >7 seconds),"sciatic nerve [2]; rat, in vivo",100%
same,"capsaicin-related side effects (spontaneous pain behavior, contralateral block, irreversible block, seizure, acute respiratory distress)",rats [4],did not cause any capsaicin-related side effects
same,motor deficits in the injected hind limb,"sciatic nerve [3]; rat, in vivo",did not produce any motor deficits
same,appearance of surrounding tissues at dissection,[6],did not appear edematous or discolored
same,microscopic examination for myotoxicity or inflammation,[6],did not reveal significant myotoxicity or inflammation
same,toluidine blue stained sciatic nerve sections,[6],normal in appearance without evidence of demyelination or axonal degeneration
galacturonic acid-capsaicin prodrug [GalA-CAP prodrug],change of nociceptive axon block duration with increasing glucose dose,"sciatic nerve [2]; rat, in vivo",significantly reduced with increasing glucose dose
same,duration of nociceptive axon blockade,"sciatic nerve [2]; rat, in vivo",150.0 ± 76.8 h and 234 ± 37 h and 150 ± 76.84 h
same,successful analgesic block (thermal paw withdrawal latencies >7 seconds),"sciatic nerve [2]; rat, in vivo",100%
same,time to restoration of full thermal stimulus sensitivity (return to baseline thermal latency),"sciatic nerve [2]; rat, in vivo",13 days
same,frequency of licking within 5 minutes after injection,rats [1],1±0 times
same,total duration of licking behavior,rats [1],4.28 ± 5.81 s
same,"capsaicin-related side effects (spontaneous pain behavior, contralateral block, irreversible block, seizure, acute respiratory distress)",rats [4],did not cause any capsaicin-related side effects
same,seizures observed (systemic toxicity),rats [4],2 out of 4
same,Half-lives,[7],<10 min
same,motor deficits in the injected hind limb,"sciatic nerve [3]; rat, in vivo",did not produce any motor deficits
same,Myotoxicity Score (median; range 0-6),[6],0
same,appearance of surrounding tissues at dissection,[6],did not appear edematous or discolored
same,"myotoxicity score, median for all groups",[6],0
same,unmyelinated C-fibers / axon diameter by TEM,[6],not significantly increased
glucuronic acid-linked bupivacaine [GluA-Bup],mean duration of sensory block,"sciatic nerve [2]; rat, in vivo",13.0 ± 2.58 h
same,mean duration of sensory blockade,"sciatic nerve [2]; rat, in vivo",3.75 ± 0.50 h
same,sensory block success,"sciatic nerve [2]; rat, in vivo",100%
same,successful sensory blockade,"sciatic nerve [2]; rat, in vivo",100%
same,duration of motor deficits / motor involvement,"sciatic nerve [3]; rat, in vivo",1.625 ± 0.25 h
same,motor deficits,"sciatic nerve [3]; rat, in vivo",without any motor deficits
glycine-capsaicin prodrug [Gly-CAP prodrug],duration of nociceptive axon blockade,"sciatic nerve [2]; rat, in vivo",17.33 ± 11.55 h
same,successful nociceptive axon blockade,"sciatic nerve [2]; rat, in vivo",100%
